# Results reported in patent publication US20200179312A1, “ANALOGUES OF CYSTEAMINE AS THERAPEUTIC AGENTS FOR CYSTIC FIBROSIS” (I.E.R.F.C. EUROPEAN INSTITUTE FOR CYSTIC FIBROSIS RESEARCH, priority 2018, published 2020).
# Legend:
# [1] = test system: BECN1, SQSTM1/p62, (phospho)p42/44 MAPK; assay: Immunoblot of autophagy and inflammation markers in CFBE cells; format: cell-based; settings: 0.1 μM
# Procedure: Cell lines experiments. CFBE41l- and 16HBE14o-cells were cultured in Minimum Essential Medium (MEM) with Earle's salt, 200 mM L-Glutamine, 10% FBS and penicillin/streptomycin. […]
# The proteins of cell lines lysates or lung or small intestine homogenates, obtained from treated and untreated cells or mice, were quantified by a Bio-Rad protein assay to ensure equal protein loading before immunoblot analysis. Fifty micrograms of proteins were loaded in each lane. Antibodies against SQSTM1, (Sigma Aldrich,P0067) 1:1000, BECN1 (Abcam, ab58878), 1:1000, CFTR clone CF3 (Abcam, ab2784) 1:1000 or anti-CFTR antibody 660 1:1000, Phospho-p44/42 MAPK (Erk1/2) (Thr202/Tyr204) (Cell Signaling Technology, #91101) 1:1000, TG2 (CUB7402, NEOMARKER) 1:1000 were used. Normalization was performed by probing the membrane with anti-β-actin (Cell Signaling, #4970) 1:1000 or anti-α-tubulin (Cell Signaling Technology, 2148) 1:1000.
# [2] = biological target: T1, CFTR (Mus musculus, UniProt P26361, DEL508-508); assay: Ussing chamber CFTR function in CftrF508del mice; format: in vivo
# T1 construct: the Ussing chamber experiments (on small intestinal tissues); from tissue; host or cells: small intestine (Ussing chamber); lung and small intestine homogenates (immunoblot) of CftrF508del mice
# T1 sequence (P26361 with tags, fused parts or gaps DEL508-508): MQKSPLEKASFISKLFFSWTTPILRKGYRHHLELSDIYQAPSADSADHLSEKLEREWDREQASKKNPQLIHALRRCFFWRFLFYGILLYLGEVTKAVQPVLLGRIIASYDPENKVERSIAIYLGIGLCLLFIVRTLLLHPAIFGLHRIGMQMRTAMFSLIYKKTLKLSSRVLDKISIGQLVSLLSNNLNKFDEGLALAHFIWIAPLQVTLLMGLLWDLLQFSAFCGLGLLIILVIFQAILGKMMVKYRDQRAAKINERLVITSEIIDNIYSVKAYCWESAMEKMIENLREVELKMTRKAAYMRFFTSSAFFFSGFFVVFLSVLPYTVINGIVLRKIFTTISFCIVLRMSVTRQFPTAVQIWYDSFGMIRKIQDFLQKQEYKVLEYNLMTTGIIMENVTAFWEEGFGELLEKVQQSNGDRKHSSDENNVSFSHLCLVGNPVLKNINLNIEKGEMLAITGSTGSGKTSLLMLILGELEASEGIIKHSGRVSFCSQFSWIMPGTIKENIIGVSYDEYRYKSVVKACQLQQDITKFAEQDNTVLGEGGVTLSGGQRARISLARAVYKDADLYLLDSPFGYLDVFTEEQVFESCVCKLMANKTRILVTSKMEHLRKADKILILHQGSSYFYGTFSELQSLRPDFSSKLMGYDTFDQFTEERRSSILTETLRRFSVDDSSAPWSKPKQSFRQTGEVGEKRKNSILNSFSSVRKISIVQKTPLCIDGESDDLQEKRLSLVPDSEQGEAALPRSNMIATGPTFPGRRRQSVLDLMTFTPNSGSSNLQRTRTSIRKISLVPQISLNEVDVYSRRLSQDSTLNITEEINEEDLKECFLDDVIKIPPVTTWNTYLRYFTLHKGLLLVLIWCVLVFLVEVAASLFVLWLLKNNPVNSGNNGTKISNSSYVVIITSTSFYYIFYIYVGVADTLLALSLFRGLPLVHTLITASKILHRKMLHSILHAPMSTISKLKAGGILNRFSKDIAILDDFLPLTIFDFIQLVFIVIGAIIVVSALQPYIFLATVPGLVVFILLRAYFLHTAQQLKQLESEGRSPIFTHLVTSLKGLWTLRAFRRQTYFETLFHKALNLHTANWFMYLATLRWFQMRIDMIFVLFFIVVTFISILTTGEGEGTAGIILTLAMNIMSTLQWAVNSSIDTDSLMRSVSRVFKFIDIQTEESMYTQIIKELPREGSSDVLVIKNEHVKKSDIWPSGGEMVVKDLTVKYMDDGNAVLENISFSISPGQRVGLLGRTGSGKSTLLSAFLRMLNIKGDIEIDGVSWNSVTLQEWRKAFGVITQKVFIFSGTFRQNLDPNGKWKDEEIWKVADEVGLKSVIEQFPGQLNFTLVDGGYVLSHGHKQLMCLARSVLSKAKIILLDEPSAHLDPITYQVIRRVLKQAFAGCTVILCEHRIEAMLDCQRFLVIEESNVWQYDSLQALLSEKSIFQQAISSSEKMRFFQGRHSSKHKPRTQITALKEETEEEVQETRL
# Procedure: Driven by the positive outcome of the cell lines (immortalized and primary nasal cell) experiments, we next investigated the possibility that IE1 could rescue the CFTR protein and function as well as re-establish the autophagy pathway in CF mice model. To test this hypothesis, we used F508del-Cftr homozygous (CftrF508del\F508del) mice and control mice (Cftr WT). CftrF508del mice were administered intraperitoneally (i.p.) for 5 d with cysteamine or different concentrations of IE1 (FIG. 7). […] Next, CftrF508del mice were administered intraperitoneally (i.p.) for 5 d with cysteamine or with 3 different concentrations of IE1 (0.05M, 0.025M or 0.0125M) followed by 10 d or 20 d of vehicle only (FIG. 9).
# CF mice homozygous for the delF508-CFTR mutation (abbreviated CftrF508del) in the 129/FVB outbred background (CftrtmlEUR, F508del, FVB/129) were obtained from Erasmus Medical Center Rotterdam, The Netherlands (CF coordinated action program EU FP6 LSHM-CT-2005-018932). These studies and procedures were approved by the local Ethics Committee for Animal Welfare (IACUC No 713). Young adult CF mice and their wild-type (wt) littermates were housed in static isolator cages at the animal care specific pathogen-free facility of Charles River (Calco, Italy). […]
# [3] = biological target: T1, CFTR; assay: Immunoblot of CFTR protein levels in tissues of CftrF508del mice; format: in vivo; settings: i.p. 5 d, then 20 d of wash out, lung and small intestinal tissue
# From the text: CF mice homozygous for the delF508-CFTR mutation (abbreviated CftrF508del) in the 129/FVB outbred background (CftrtmlEUR, F508del, FVB/129) were obtained from Erasmus Medical Center Rotterdam, The Netherlands (CF coordinated action program EU FP6 LSHM-CT-2005-018932). These studies and procedures were approved by the local Ethics Committee for Animal Welfare (IACUC No 713). Young adult CF mice and their wild-type (wt) littermates were housed in static isolator cages at the animal care specific pathogen-free facility of Charles River (Calco, Italy). CftrF508del mice were treated with daily intraperitoneal injections of cysteamine (100 μl of 0.05 M in PBS) (Sigma Aldrich, M9768) or IE1 (100 μl of 0.075-0.05-0.025-0.0125 M, in PBS) for 5 d or with cysteamine (5 d) or IE1 different concentrations followed by 10 d or 20 d of PBS alone (n=5 mice per group) (19,20).
# The proteins of cell lines lysates or lung or small intestine homogenates, obtained from treated and untreated cells or mice, were quantified by a Bio-Rad protein assay to ensure equal protein loading before immunoblot analysis. Fifty micrograms of proteins were loaded in each lane. […]
# [4] = biological target: F508delCFTR (Homo sapiens, UniProt P13569, DEL508-508); assay: SPQ assay in primary nasal cells collected by nasal brushing from CF patients; format: cell-based; parameters: Freshly isolated brushed nasal epithelial cells were collected by nasal brushing; endogenous in cells; host or cells: primary nasal epithelial cells from F508del-homozygous CF patients
# F508delCFTR, sequence (P13569 with tags, fused parts or gaps DEL508-508): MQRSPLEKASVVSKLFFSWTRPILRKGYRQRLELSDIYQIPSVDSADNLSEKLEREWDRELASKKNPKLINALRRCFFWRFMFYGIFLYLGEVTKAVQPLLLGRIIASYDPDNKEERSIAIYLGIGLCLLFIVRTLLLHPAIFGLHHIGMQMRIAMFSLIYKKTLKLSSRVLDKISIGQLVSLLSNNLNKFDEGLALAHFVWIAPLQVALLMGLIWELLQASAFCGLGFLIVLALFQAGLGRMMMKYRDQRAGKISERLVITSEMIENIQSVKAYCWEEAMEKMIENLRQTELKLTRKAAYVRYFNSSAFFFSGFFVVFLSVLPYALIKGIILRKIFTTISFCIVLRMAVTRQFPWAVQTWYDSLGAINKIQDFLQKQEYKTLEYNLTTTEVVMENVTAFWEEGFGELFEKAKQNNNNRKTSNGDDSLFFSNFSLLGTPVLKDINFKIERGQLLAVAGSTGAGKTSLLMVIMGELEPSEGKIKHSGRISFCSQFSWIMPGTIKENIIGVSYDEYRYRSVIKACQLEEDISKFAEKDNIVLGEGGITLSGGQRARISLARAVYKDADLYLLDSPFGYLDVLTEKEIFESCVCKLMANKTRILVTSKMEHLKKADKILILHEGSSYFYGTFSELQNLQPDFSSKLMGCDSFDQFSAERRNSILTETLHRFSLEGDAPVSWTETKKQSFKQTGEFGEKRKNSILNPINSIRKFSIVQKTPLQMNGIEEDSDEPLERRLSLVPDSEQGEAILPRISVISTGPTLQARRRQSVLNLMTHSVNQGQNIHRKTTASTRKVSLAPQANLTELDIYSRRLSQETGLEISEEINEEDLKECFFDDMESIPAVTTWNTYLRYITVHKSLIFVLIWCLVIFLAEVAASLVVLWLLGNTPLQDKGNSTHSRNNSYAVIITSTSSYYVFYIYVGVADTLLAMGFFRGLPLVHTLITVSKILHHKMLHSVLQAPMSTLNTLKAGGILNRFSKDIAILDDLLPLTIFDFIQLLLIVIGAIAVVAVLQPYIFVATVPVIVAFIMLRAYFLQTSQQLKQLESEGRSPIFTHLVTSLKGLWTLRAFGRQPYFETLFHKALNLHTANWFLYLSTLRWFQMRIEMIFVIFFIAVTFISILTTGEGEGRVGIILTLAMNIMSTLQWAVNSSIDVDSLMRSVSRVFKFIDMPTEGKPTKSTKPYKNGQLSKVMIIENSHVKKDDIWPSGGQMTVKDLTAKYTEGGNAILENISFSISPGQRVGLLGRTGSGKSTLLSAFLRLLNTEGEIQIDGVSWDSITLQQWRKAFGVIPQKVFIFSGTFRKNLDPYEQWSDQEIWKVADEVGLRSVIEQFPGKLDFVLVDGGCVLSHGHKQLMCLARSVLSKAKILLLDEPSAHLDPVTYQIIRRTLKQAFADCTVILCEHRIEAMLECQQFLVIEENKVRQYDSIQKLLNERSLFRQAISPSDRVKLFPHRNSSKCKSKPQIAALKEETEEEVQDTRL
# Procedure: The compounds of formula I have marked effects on CFTR function. A representative number of compounds of formula I (Compounds IE1-IE4; Table I) were tested in comparison to cysteamine and amifostine through SPQ assay in F508delCFTR homozygous bronchial epithelial cell lines (CFBE41o-) transfected with F508delCFTR (FIG. 1) and in ex vivo in nasal cells collected by nasal brushing from CF patients (FIGS. 2A and B). Freshly isolated brushed nasal epithelial cells were collected by nasal brushing, as previously described (21, 21) from 10 F508del-CFTR homozygous CF patients and from 5 non-CF healthy volunteers recruited from staff at the same time points. Both patients and healthy volunteers gave written informed consent. […] Brushes with cells were immediately transferred into RPMI 1640 medium (Invitrogen) containing 1% penicillin-streptomycin (Lonza, 17-602E), in 15-ml sterilized tubes. The tubes were incubated at 37° C. for 2 h on a thermo shaker, to remove all cell from brushes; the brushes were then removed and the cells centrifuged at 800×g (2000 rpm) for 20 min. The supernatant fractions were discarded and the cell pellet treated with […] of trypsin-versene (EDTA) solution (Lonza, 17-161) for 4 min at 37° C. to disaggregate possible cell clusters. Trypsin solution was inactivated by adding 3 ml of serum-free Bronchial Epithelial cell Growth Medium BEGM (Clonetics, Lonza, CC3170). After centrifugation at 800×g (2000 rpm) for 10 min, cells were placed in […] 25 flasks (Sarstedt Ltd, CS300) with 10 ml of BEGM medium. Nonspecific epithelial cells were removed during the daily cell washing and medium changes.
structure (smiles),measurement,setting,value
"NCCCS [IE1, 3-aminopropane-1-thiol]",BECN1 level,[1],able to restore BECN1
same,Inflammation biomarkers (phospho)p42/44 MAPK,[1],decrease
same,p62 levels,[1],reduce p62 levels
same,Effect on (phospho)p42/44 MAPK after 48 h in presence of EGCG,"[1]; 48 h, EGCG",maintained
same,Effect on BECN1 and p62 after 48 h with EGCG addition,"[1]; 48 h, EGCG addition",preserved
same,Effect on (phospho)p42/44 MAPK after 48 h,[1]; after 48 h,completely lost
same,Effect on BECN1 and p62 after 48 h,[1]; after 48 h,disappears
same,"Sustaining CFTR function after wash out, compared with cysteamine","[2]; i.p. 5 d at 0.05M, 0.025M or 0.0125M, then 20 d of vehicle only",more effective than cysteamine
same,"Rescue of CFTR function (Ussing chamber, small intestinal tissues)","[2]; i.p. for 5 d, IE1 concentration 0.05 to 0.00125",highly effective
same,CFTR protein levels after wash out (immunoblot),[3],sustaining the protein well beyond 20 d of wash out
same,CFTR function after wash out with EGCG added,"[4]; 48 h after wash out, epigallocatechin gallate added, nasal primary cells",effect is preserved
same,CFTR function after wash out,"[4]; 48 h after wash out, nasal primary cells",loses its efficacy
same,Efficacy on CFTR function compared with VX-809,"[4]; VX-809 3 μM, FIG. 2A",more efficacious than VX-809
same,CFTR function after wash out,"[4]; up to 24 h after wash out, nasal cells",able to maintain CFTR function
